From patent EP4389746A2, “P2X3 RECEPTOR ANTAGONISTS” (Recordati Industria Chimica E Farmaceutica SPA, priority 2022, dated 2024)

Columns and labels:
human P2X3 receptor = biological target: T1, human P2X3 receptor (Homo sapiens, UniProt P56373); assay: Calcium luminescence measurement: human P2X3 receptor activity inhibition (CHO-K1 cells, photoprotein readout, FLEXSTATION); format: cell-based; conditions: CHO-K1 cells co-expressing human P2X3 and Ca2+ sensitive photoprotein; agonist α,β-Met-ATP; read-out: h-P2X3 IC50
T1 construct: expressed in transfected cells; host or cells: CHO-K1
T1 sequence (P56373 1-397): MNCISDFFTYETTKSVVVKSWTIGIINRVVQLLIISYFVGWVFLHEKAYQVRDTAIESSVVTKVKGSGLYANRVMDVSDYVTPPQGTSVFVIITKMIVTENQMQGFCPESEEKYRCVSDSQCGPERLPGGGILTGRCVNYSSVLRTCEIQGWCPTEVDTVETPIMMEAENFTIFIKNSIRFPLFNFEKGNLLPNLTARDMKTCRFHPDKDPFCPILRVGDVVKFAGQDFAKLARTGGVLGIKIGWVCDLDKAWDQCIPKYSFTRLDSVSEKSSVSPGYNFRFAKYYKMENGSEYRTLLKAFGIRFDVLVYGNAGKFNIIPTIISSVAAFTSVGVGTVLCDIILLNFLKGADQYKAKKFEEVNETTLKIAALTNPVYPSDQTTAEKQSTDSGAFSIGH
Procedure: Determination of human P2X3 receptor activity inhibition
The assay for the human purinergic P2RX3 receptor has been adapted to the internal screening instrumentation using the FLEXSTATION as reader and a photoprotein as luminescent readout. The assay consists of CHO-K1 cells recombinantly co-expressing the human P2rx3 receptor and a Ca^2+ sensitive photoprotein. Cells are maintained in DMEM F-12 (1:1) mixture (LONZA cat. n° BE04-687F/U1) supplemented with 9 mL of 100 mM Sodium Pyruvate (LONZA cat. n° BE13-115E), 29 mL of 7.5% Sodium Bicarbonate (LONZA cat. n° BE17-613E), 5.5 mL of 1 M Hepes (LONZA cat. n° BE17-737E), 5 mL of 100X Penicillin/Streptomycin mixture (LONZA cat. n° DE17-602E) and 50 mL of Fetal Bovine Serum (Sigma cat. n° F7524), 1 mg/mL G418 disulfate salt (Sigma cat. n° G8168) and 5 µg/ml Puromycin dihydrochloride (Sigma cat. n° P9620). Standard propagation conditions consist of seeding in a P75 flask twice a week, recovering about 20×10^6 cells, corresponding to about 80% confluency. Cells were seeded into black-walled clear bottom 96 well plates at a density of 40000 cells/well in a complete medium. After 24 h the culture medium was replaced with 200 µL/well of coelenterazine in Tyrode's buffer (Standard Tyrode's buffer: in house solution, 130 mM NaCl, 5 mM KCl, 2 mM CaCl2, 5 mM NaHCO3, 1 mM MgCl2, 20 mM HEPES, pH 7.4). Coelenterazine was purchased from BIOSYNTH (cat. n° C-7001). 10 mM stock solution was prepared in DMSO and glutathione and stored at -20° C. The plates were incubated for 4 hours at 37°C, and injected with 10 µL/well of test compounds at 25X concentration in Tyrode's buffer. After 4 minutes a second injection of 50 µL/well of 5X α,β-Met-ATP in Tyrode's buffer (α,β-Met-ATP: from Tocris (cat. n° 3209), was dissolved at 100 mM in water and stored in aliquots at -20°C) was performed and the signal of the emitted luminescence was recorded by FLEXSTATION III (Molecular Devices). […]
The inhibition curves of the tested compounds at cloned P2X3 receptor were determined by nonlinear regression analysis using software Prism 5.0 (Graphpad, San Diego, CA). The IC50 values and pseudo-Hill slope coefficients were estimated by the program.

human P2X2/3 receptor = biological target: T2, human P2X2/3 receptor (Homo sapiens, UniProt P56373+Q9UBL9); assay: Calcium fluorescence measurement: human P2X2/3 receptor activity inhibition (CHO-K1 cells, Fluo-8 NoWash, […]); format: cell-based; conditions: for IC50: CHO-K1 cells expressing human P2RX2/X3 channel, 10µM α,β-Met-ATP, read-out: h-P2X2/3 IC50; for Selectivity: ratio of IC50 of P2X2/3/ P2X3 receptors
T2 construct: expressed in transfected cells; host or cells: CHO-K1
T2 sequence (P56373 1-397): T1 sequence (P56373 1-397)
T2 sequence (Q9UBL9 1-471): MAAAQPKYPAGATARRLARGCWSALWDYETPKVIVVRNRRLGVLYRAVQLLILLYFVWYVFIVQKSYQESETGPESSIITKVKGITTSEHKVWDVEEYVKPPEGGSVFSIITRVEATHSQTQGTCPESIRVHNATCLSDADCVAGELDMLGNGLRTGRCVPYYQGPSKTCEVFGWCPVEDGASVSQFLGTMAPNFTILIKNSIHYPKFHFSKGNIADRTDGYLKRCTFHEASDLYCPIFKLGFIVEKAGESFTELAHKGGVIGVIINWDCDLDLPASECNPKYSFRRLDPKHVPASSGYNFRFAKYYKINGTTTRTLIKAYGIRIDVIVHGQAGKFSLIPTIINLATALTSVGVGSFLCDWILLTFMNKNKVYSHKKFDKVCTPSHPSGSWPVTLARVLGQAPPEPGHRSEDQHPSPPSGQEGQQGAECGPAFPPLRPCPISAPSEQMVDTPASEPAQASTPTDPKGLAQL
Procedure: Determination of human P2X2/3 receptor activity inhibition
The assay for the human P2RX2/X3 has been evaluated by the screening instrumentation using the […] as reader and the FLUO8-NoWash dye as fluorescent readout for calcium detection.
CHO-K1 cells recombinantly expressing the human P2RX2/X3 channel are maintained in DMEM F-12 (1:1) mixture (LONZA cat. n°: BE04-687F/U1) supplemented with 5 mL of 100 mM Sodium Pyruvate (LONZA cat. n° BE13-115E), 25 mL of 7.5% Sodium Bicarbonate (LONZA cat. n° BE17-613E), 6.5 mL of 1M Hepes (LONZA cat. n° BE17-737E), 5 mL of 100X Penicillin/Streptomycin mixture (LONZA cat. n° DE17-602E) and 50 mL of Fetal Bovine Serum (Sigma cat. n° F7524), 5 µg/mL Puromycin dihydrochloride (Sigma cat. n° P9620) and 1 mg/ml G418 disulfate salt (Sigma cat. n° G8168).
Cells were seeded into black-walled clear bottom 384 Multiwell plates at a density of 10.000 cells/well in complete medium. After 24 h the culture medium was replaced with 20 µL/well of Fluo-8 NoWash calcium sensitive dye (AAT Bioquest cat. n° 36316) diluted in Tyrode's buffer (Standard Tyrode's buffer: in house solution, 130 mM NaCl, 5 mM KCl, 2 mM CaCl2, 5 mM NaHCO3, 1 mM MgCl2, 20 mM HEPES, pH 7.4).
The plates were incubated for 1 hours at 37°C and injected with 10 µL/well of test compounds at 3X concentration in Tyrode's buffer with the […]. After 5 minutes a second injection of 15 µL/well of 10µM α,β-Met-ATP in Tyrode's buffer (α,β-Met-ATP: from Tocris cat. n° 3209) was performed and the signal of the emitted fluorescence was recorded by […] (Molecular Devices).
The selectivity is expressed as the ratio of IC50 of P2X2/3/ P2X3 receptors. Table 8: Human P2X3 and h-P2X2/3 receptor antagonist activity for selected compounds of the invention.

| SMILES | IC50 (human P2X3 receptor) [µM] | IC50 (human P2X2/3 receptor) [µM] | Selectivity (human P2X2/3 receptor) |
| --- | --- | --- | --- |
| CC(C)(C)c1nnc2c3nnc(N4CCC(O)CC4)cc3n(Cc3ccc(Cl)cc3)c(=O)n12 [Example 55, 3-tert-Butyl-6-[(4-chlorophenyl)methyl]-8-(4-hydroxypiperidin-1-yl)[1,2,4]triazolo[4',3': 1,6]pyrimido[5,4-c]pyridazin-5(6H)-one] | 0.025 | > 30 | >1200 |
| COC(C)(C)C1CN2C(=O)N(Cc3ccc(Cl)cc3)c3cc(N4CCOCC4)cnc3C2=N1 (centres unmarked) [Example 5, 6-(4-Chlorobenzyl)-2-(2-methoxypropan-2-yl)-8-(morpholin-4-yl)-2,6-dihydroimidazo[1,2-c]pyrido[2,3-e]pyrimidin-5(3H)-one] | 0.111 | 19 | 170 |
| CC(C)(C)C1C(=O)N=C2c3ncc(N4CCOCC4)cc3N(Cc3ccc(Cl)cc3)C(=O)N21 (centres unmarked) [Example 21] | 0.067 | 3.43 | 51 |
| CC(C)(O)C1CN2C(=O)N(Cc3ccc(Cl)cc3)c3cc(N4CCOCC4)nnc3C2=N1 (centres unmarked) [Example 19, 5-[(4-Chlorophenyl)methyl]-9-(2-hydroxypropan-2-yl)-3-(morpholin-4-yl)-8,9-dihydroimidazo[1',2':1,6]pyrimido[5,4-c]pyridazin-6(5H)-one] | 0.0312 | > 30 | >961 |
| COC(C)(C)C1CN2C(=O)N(Cc3ccc(Cl)cc3)c3cc(N4CCOCC4)nnc3C2=N1 (centres unmarked) [Example 18, 5-[(4-Chlorophenyl)methyl]-9-(2-methoxypropan-2-yl)-3-(morpholin-4-yl)-8,9-dihydroimidazo[1',2':1,6]pyrimido[5,4-c]pyridazin-6(5H)-one] | 0.0464 | > 30 | >646 |
| COC(C)(C)c1nnc2c3ncc(N4CCOCC4)cc3n(Cc3ccc(Cl)cc3)c(=O)n12 [Example 32, 6-(4-Chlorobenzyl)-3-(2-methoxypropan-2-yl)-8-(morpholin-4-yl)pyrido[2,3-e][1,2,4]triazolo[4,3-c]pyrimidin-5(6H)-one] | 0.021 | > 30 | >1000 |
| CC(C)(C)c1nnc2c3ncc(N4CCOCC4)cc3n(Cc3ccc(Br)cc3)c(=O)n12 [Example 31, 6-[(4-Bromophenyl)methyl] -3-tert-butyl-8-(morpholin-4-yl)pyrido[2,3-e][1,2,4]triazolo[4,3-c]pyrimidin-5(6H)-one] | 0.0072 | 8.15 | >1000 |
| COc1ccc(Cn2c(=O)n3c(C(C)(C)C)nnc3c3ncc(N4CCNCC4)cc32)cc1 [Example 35, 3-tert-Butyl-6-[(4-methoxyphenyl)methyl] -8-(piperazin-1-yl)pyrido[2,3-e][1,2,4]triazolo[4,3-c]pyrimidin-5(6H)-one] | 0.33 | > 30 | >90 |
| CC(C)C1CN2C(=O)N(Cc3ccc(Cl)cc3)c3cc(N4CCOCC4)cnc3C2=N1 (racemic) [Example 9, 6-[(4-Chlorophenyl)methyl]-8-(morpholin-4-yl)-2-(propan-2-yl)-2,6-dihydroimidazo[1,2-c]pyrido[2,3-e]pyrimidin-5(3H)-one] | 0.167 | 7.41 | 44 |
| COc1ccc(Cn2c(=O)n3c(C(C)(C)C)nnc3c3ncc(N4CCN(C(C)=O)CC4)cc32)cc1 [Example 36, 8-(4-Acetylpiperazin-1-yl)-3-tert-butyl-6-[(4-methoxyphenyl)methyl]pyrido[2,3-e][1,2,4]triazolo[4,3-c]pyrimidin-5(6H)-one] | 0.136 | > 30 | >119 |
| CC(C)C1CN2C(=O)N(CC(=O)Nc3ccc(F)cn3)c3cc(N4CCOCC4)cnc3C2=N1 (centres unmarked) [Example 6, N-(5-Fluoropyridin-2-yl)-2-[8-(morpholin-4-yl)-5-oxo-2-(propan-2-yl)-2,3-dihydroimidazo[1,2-c]pyrido[2,3-e]pyrimidin-6(5H)-yl]acetamide] | 0.0335 | 0.221 | 6.5 |
| COc1ccc(CN2C(=O)N3C(=NC(=O)C3C(C)(C)C)c3ncc(N4CCOCC4)cc32)cc1 (centres unmarked) [Example 20, 3-tert-Butyl-6-[(4-methoxyphenyl)methyl] -8-(morpholin-4-yl)imidazo[1,2-c]pyrido[2,3-e]pyrimidine-2,5(3H,6H)-dione] | 0.114 | 28.5 | 249 |
| CC(C)C1C(=O)N=C2c3ncc(N4CCC(O)CC4)cc3N(Cc3ccc(Cl)cc3)C(=O)N21 (centres unmarked) [Example 26, 6-[(4-Chlorophenyl)methyl]-8-(4-hydroxypiperidin-1-yl)-3-(propan-2-yl)imidazo[1,2-c]pyrido[2,3-e]pyrimidine-2,5(3H,6H)-dione] | 0.115 | > 30 | >260 |
| CC(C)(C)c1nc2c3ncc(N4CCCC(O)C4)cc3n(Cc3ccc(Cl)cc3)c(=O)n2n1 (centres unmarked) [Example 52, 2-tert-Butyl-6-[(4-chlorophenyl)methyl]-8-(3-hydroxypiperidin-1-yl)pyrido[2,3-e][1,2,4]triazolo[1,5-c]pyrimidin-5(6H)-one] | 0.215 |  |  |
| COC(C)(C)c1nnc2c3nnc(N4CCNCC4)cc3n(Cc3ccc(Cl)cc3)c(=O)n12 [Example 46, 6-[(4-Chlorophenyl)methyl]-3-(2-methoxypropan-2-yl)-8-(piperazin-1-yl)[1,2,4]triazolo[4',3': 1,6]pyrimido[5,4-c]pyridazin-5(6H)-one] | 0.322 |  |  |
